Reference: US20100092526A1, “NANOEMULSION THERAPEUTIC COMPOSITIONS AND METHODS OF USING THE SAME” (NanoBio Corporation, priority 2008, published 2010)
≈ marks a conversion by molar mass, not a printed value.

Experiments:
[1] = test system: P. aeruginosa, B. cenocepacia, A. baumannii and S. maltophilia; assay: MIC/MBC against all strains of Example 8; settings: for MBC: read-out: MBC90, against all strains
[2] = test system: methicillin-resistant Staphylococcus aureus (MRSA); assay: Susceptibility (MIC/MBC) of MRSA clinical isolates; assay type: cell-based; settings: Staphylococcus aureus; MRSA isolates; read-out: MIC90
[3] = test system: subset (23) of gram-negative isolates; assay: Cidality (MBC/MIC ratio) against a subset (23) of gram-negative isolates; assay type: cell-based, gram-negative bacteria; settings: 23 isolates
Stenotrophomonas strains = assay: Checkerboard synergy study (FIC/FBC index); assay type: cell-based; settings: for Summary of synergy data (overall interaction): Stenotrophomonas, combined with P4075EC & 1 mM EDTA
Acinetobacter strains = assay: Checkerboard synergy study (FIC/FBC index); assay type: cell-based; settings: for Summary of synergy data (overall interaction): Acinetobacter, combined with P4075EC & 1 mM EDTA
Burkholderia strains = assay: Checkerboard synergy study (FIC/FBC index); assay type: cell-based; settings: for Summary of synergy data (overall interaction): Burkholderia, combined with P4075EC & 5 mM EDTA
[4] = isolate NB42, combined with P4075EC+EDTA
[5] = isolate NB43, combined with P4075EC+EDTA
[6] = isolate NB44, combined with P4075EC+EDTA
[7] = isolate NB45, combined with P4075EC+EDTA
[8] = isolate Steno 1, combined with P4075EC+EDTA
[9] = isolate Steno 2, combined with P4075EC+EDTA
[10] = isolate Steno 3, combined with P4075EC+EDTA
[11] = isolate Steno 4, combined with P4075EC+EDTA
[12] = isolate Steno 6, combined with P4075EC+EDTA
[13] = isolate Steno 8, combined with P4075EC+EDTA
[14] = share of Stenotrophomonas strains with synergy, combined with P4075EC+EDTA
[15] = isolate NB31, combined with P4075EC+EDTA
[16] = isolate NB32, combined with P4075EC+EDTA
[17] = isolate NB33, combined with P4075EC+EDTA
[18] = isolate NB34, combined with P4075EC+EDTA
[19] = isolate NB35, combined with P4075EC+EDTA
[20] = isolate NB36, combined with P4075EC+EDTA
[21] = isolate NB37, combined with P4075EC+EDTA
[22] = isolate NB38, combined with P4075EC+EDTA
[23] = isolate NB39, combined with P4075EC+EDTA
[24] = isolate NB40, combined with P4075EC+EDTA
[25] = share of 10 Acinetobacter strains with synergy, combined with P4075EC+EDTA
[26] = isolate NB21, combined with P4075EC+EDTA
[27] = isolate NB22, combined with P4075EC+EDTA
[28] = isolate NB23, combined with P4075EC+EDTA
[29] = isolate NB24, combined with P4075EC+EDTA
[30] = isolate NB25, combined with P4075EC+EDTA
[31] = isolate NB26, combined with P4075EC+EDTA
[32] = isolate NB27, combined with P4075EC+EDTA
[33] = isolate NB28b, combined with P4075EC+EDTA
[34] = isolate NB29, combined with P4075EC+EDTA
[35] = isolate NB30, combined with P4075EC+EDTA
[36] = share of ten Burkholderia strains with synergy, combined with P4075EC+EDTA

C[C@H]1COc2c(N3CCN(C)CC3)c(F)cc3c(=O)c(C(=O)O)cn1c23 [Levofloxacin]
MIC90 [1]: 16 µg/mL (≈ 44.3 µM) | MBC [1]: 16 µg/mL (≈ 44.3 µM) | MIC90 [2]: 32 µg/mL (≈ 88.6 µM) | number of strains with MBC/MIC ratio 1 ([3]; Cidal): 9 number of strains | number of strains with MBC/MIC ratio 2 ([3]; Cidal): 8 number of strains | number of strains with MBC/MIC ratio 4 ([3]; Cidal): 1 number of strains | number of strains with MBC/MIC ratio >8x ([3]; Static): 5 number of strains

NC[C@H]1O[C@H](O[C@H]2[C@H](O)[C@@H](O[C@H]3O[C@H](CO)[C@@H](O)[C@H](N)[C@H]3O)[C@H](N)C[C@@H]2N)[C@H](N)C[C@@H]1O [Tobramycin]
Summary of synergy data (overall interaction) (Stenotrophomonas strains): No Interference | Summary of synergy data (overall interaction) (Acinetobacter strains): No Interference | MIC90 [1]: > 32 µg/mL | MBC [1]: > 32 µg/mL | Summary of synergy data (overall interaction) (Burkholderia strains): No Interference

Colistin
Summary of synergy data (overall interaction) (Stenotrophomonas strains): Synergy | FBC (Stenotrophomonas strains; [4]): 1.28 | FIC (Stenotrophomonas strains; [4]): 0.08 | Synergy (FBC) (Stenotrophomonas strains; [4]): indifferent | Synergy (FIC) (Stenotrophomonas strains; [4]): yes | FBC (Stenotrophomonas strains; [5]): 0.15 | FIC (Stenotrophomonas strains; [5]): 0.08 | Synergy (FBC) (Stenotrophomonas strains; [5]): yes | Synergy (FIC) (Stenotrophomonas strains; [5]): yes | FBC (Stenotrophomonas strains; [6]): 0.57 | FIC (Stenotrophomonas strains; [6]): 1.01 | Synergy (FBC) (Stenotrophomonas strains; [6]): indifferent | Synergy (FIC) (Stenotrophomonas strains; [6]): indifferent | FBC (Stenotrophomonas strains; [7]): 0.45 | FIC (Stenotrophomonas strains; [7]): 0.04 | Synergy (FBC) (Stenotrophomonas strains; [7]): yes | Synergy (FIC) (Stenotrophomonas strains; [7]): yes | FBC (Stenotrophomonas strains; [8]): 0.11 | FIC (Stenotrophomonas strains; [8]): 0.08 | Synergy (FBC) (Stenotrophomonas strains; [8]): yes | Synergy (FIC) (Stenotrophomonas strains; [8]): yes | FBC (Stenotrophomonas strains; [9]): 0.04 | FIC (Stenotrophomonas strains; [9]): 0.09 | Synergy (FBC) (Stenotrophomonas strains; [9]): yes | Synergy (FIC) (Stenotrophomonas strains; [9]): yes | FBC (Stenotrophomonas strains; [10]): 0.14 | FIC (Stenotrophomonas strains; [10]): 0.09 | Synergy (FBC) (Stenotrophomonas strains; [10]): yes | Synergy (FIC) (Stenotrophomonas strains; [10]): yes | FBC (Stenotrophomonas strains; [11]): 1.14 | FIC (Stenotrophomonas strains; [11]): 0.46 | Synergy (FBC) (Stenotrophomonas strains; [11]): indifferent | Synergy (FIC) (Stenotrophomonas strains; [11]): yes | FBC (Stenotrophomonas strains; [12]): 0.02 | FIC (Stenotrophomonas strains; [12]): 0.09 | Synergy (FBC) (Stenotrophomonas strains; [12]): yes | Synergy (FIC) (Stenotrophomonas strains; [12]): yes | FBC (Stenotrophomonas strains; [13]): 0.07 | FIC (Stenotrophomonas strains; [13]): 0.09 | Synergy (FBC) (Stenotrophomonas strains; [13]): yes | Synergy (FIC) (Stenotrophomonas strains; [13]): yes | % FBC Synergy (Stenotrophomonas strains; [14]): 70% | % FIC Synergy (Stenotrophomonas strains; [14]): 90% | Summary of synergy data (overall interaction) (Acinetobacter strains): No Interference | FBC (Acinetobacter strains; [15]): 2.44 | FIC (Acinetobacter strains; [15]): 0.83 | Synergy (FBC) (Acinetobacter strains; [15]): indifferent | Synergy (FIC) (Acinetobacter strains; [15]): indifferent | FBC (Acinetobacter strains; [16]): 1.36 | FIC (Acinetobacter strains; [16]): 0.58 | Synergy (FBC) (Acinetobacter strains; [16]): indifferent | Synergy (FIC) (Acinetobacter strains; [16]): indifferent | FBC (Acinetobacter strains; [17]): 2 | FIC (Acinetobacter strains; [17]): 0.33 | Synergy (FBC) (Acinetobacter strains; [17]): indifferent | Synergy (FIC) (Acinetobacter strains; [17]): yes | FBC (Acinetobacter strains; [18]): 1.10 | FIC (Acinetobacter strains; [18]): 0.46 | Synergy (FBC) (Acinetobacter strains; [18]): indifferent | Synergy (FIC) (Acinetobacter strains; [18]): yes | FBC (Acinetobacter strains; [19]): 0.97 | FIC (Acinetobacter strains; [19]): 0.72 | Synergy (FBC) (Acinetobacter strains; [19]): indifferent | Synergy (FIC) (Acinetobacter strains; [19]): indifferent | FBC (Acinetobacter strains; [20]): 2 | FIC (Acinetobacter strains; [20]): 0.56 | Synergy (FBC) (Acinetobacter strains; [20]): indifferent | Synergy (FIC) (Acinetobacter strains; [20]): indifferent | FBC (Acinetobacter strains; [21]): 1.00 | FIC (Acinetobacter strains; [21]): 0.63 | Synergy (FBC) (Acinetobacter strains; [21]): indifferent | Synergy (FIC) (Acinetobacter strains; [21]): indifferent | FBC (Acinetobacter strains; [22]): 0.68 | FIC (Acinetobacter strains; [22]): 0.77 | Synergy (FBC) (Acinetobacter strains; [22]): indifferent | Synergy (FIC) (Acinetobacter strains; [22]): indifferent | FBC (Acinetobacter strains; [23]): 1.22 | FIC (Acinetobacter strains; [23]): 0.72 | Synergy (FBC) (Acinetobacter strains; [23]): indifferent | Synergy (FIC) (Acinetobacter strains; [23]): indifferent | FBC (Acinetobacter strains; [24]): 0.91 | FIC (Acinetobacter strains; [24]): 0.63 | Synergy (FBC) (Acinetobacter strains; [24]): indifferent | Synergy (FIC) (Acinetobacter strains; [24]): indifferent | % FBC Synergy (Acinetobacter strains; [25]): 0% | % FIC Synergy (Acinetobacter strains; [25]): 20% | Summary of synergy data (overall interaction) (Burkholderia strains): No Interference | FBC (Burkholderia strains; [26]): 2.07 | FIC (Burkholderia strains; [26]): 1.45 | Synergy (FBC) (Burkholderia strains; [26]): indifferent | Synergy (FIC) (Burkholderia strains; [26]): indifferent | FBC (Burkholderia strains; [27]): 2.29 | FIC (Burkholderia strains; [27]): 1.37 | Synergy (FBC) (Burkholderia strains; [27]): indifferent | Synergy (FIC) (Burkholderia strains; [27]): indifferent | FBC (Burkholderia strains; [28]): 2.00 | FIC (Burkholderia strains; [28]): 1.01 | Synergy (FBC) (Burkholderia strains; [28]): indifferent | Synergy (FIC) (Burkholderia strains; [28]): indifferent | FBC (Burkholderia strains; [29]): 2.00 | FIC (Burkholderia strains; [29]): 1.72 | Synergy (FBC) (Burkholderia strains; [29]): indifferent | Synergy (FIC) (Burkholderia strains; [29]): indifferent | FBC (Burkholderia strains; [30]): 3.00 | FIC (Burkholderia strains; [30]): 2.00 | Synergy (FBC) (Burkholderia strains; [30]): indifferent | Synergy (FIC) (Burkholderia strains; [30]): indifferent | FBC (Burkholderia strains; [31]): 0.04 | FIC (Burkholderia strains; [31]): 0.56 | Synergy (FBC) (Burkholderia strains; [31]): yes | Synergy (FIC) (Burkholderia strains; [31]): yes | FBC (Burkholderia strains; [32]): 1.64 | FIC (Burkholderia strains; [32]): 1.93 | Synergy (FBC) (Burkholderia strains; [32]): indifferent | Synergy (FIC) (Burkholderia strains; [32]): indifferent | FBC (Burkholderia strains; [33]): 1.54 | FIC (Burkholderia strains; [33]): 0.29 | Synergy (FBC) (Burkholderia strains; [33]): indifferent | Synergy (FIC) (Burkholderia strains; [33]): yes | FBC (Burkholderia strains; [34]): 1.68 | FIC (Burkholderia strains; [34]): 1.61 | Synergy (FBC) (Burkholderia strains; [34]): indifferent | Synergy (FIC) (Burkholderia strains; [34]): indifferent | FBC (Burkholderia strains; [35]): 1.86 | FIC (Burkholderia strains; [35]): 0.02 | Synergy (FBC) (Burkholderia strains; [35]): indifferent | Synergy (FIC) (Burkholderia strains; [35]): yes | % FBC Synergy (Burkholderia strains; [36]): 10% | % FIC Synergy (Burkholderia strains; [36]): 30%
